The results in this text go back to ChEMBL document CHEMBL4342490, “Discovery of Potent and Selective MTH1 Inhibitors for Oncology: Enabling Rapid Target (In)Validation” (ACS Med Chem Lett, 2020).

Series [1] has as its system U2OS. The series is described as follows: Cytotoxicity against human U2OS cells assessed as reduction in cell viability incubated for 72 hrs by celltiter glo assay.
Series [2] relates to U2OS. The series is described as follows: Induction of DNA damage in human U2OS cells assessed as increase in gammaH2AX foci formation at 20 uM incubated for 72 hrs by immunostaining based confocal microscopy. The series is classed as functional, cell-based.
The nature of series [3]: Cytotoxicity against human MT4 cells assessed as reduction in cell viability incubated for 72 hrs by celltiter glo assay. Type of series: cell-based.
Series [4] concerns the target Oxidized purine nucleoside triphosphate hydrolase (Homo sapiens) (UniProt P36639). As to the kind of experiment: Inhibition of MTH1 in human U2OS cells assessed as activation of p53 at 2.25 uM incubated for 4 and 24 hrs by Peggy sue Western blot assay. The series is classed as cell-based.
The subject of another series is SW480. As to the kind of experiment: Cytotoxicity against human SW480 cells assessed as reduction in cell viability incubated for 72 hrs by celltiter glo assay. The following applies: SW480, 72 h.
A short description of series [5]: Permeability across basolateral to apical side in human Caco2 cells. The series is classed as ADME, cell-based. The settings on record: Caco-2, read-out: permeability.
Series [6] in a line: Dissociation constant, pKa of the compound. Type of series: physicochemical.
Series [7] can be described thus: Permeability across apical to basolateral side in human Caco2 cells. The settings on record: Caco-2.
Series [8] can be described thus: Clearance in Sprague-Dawley rat at 5 mg/kg, po or 1 mg/kg, iv. The series is classed as ADME, organism-based. The following applies: in vivo.
Series [9] addresses T1, Nuclear receptor subfamily 1 group I member 2 (Homo sapiens, UniProt O75469).
T1 sequence (O75469 whole entry): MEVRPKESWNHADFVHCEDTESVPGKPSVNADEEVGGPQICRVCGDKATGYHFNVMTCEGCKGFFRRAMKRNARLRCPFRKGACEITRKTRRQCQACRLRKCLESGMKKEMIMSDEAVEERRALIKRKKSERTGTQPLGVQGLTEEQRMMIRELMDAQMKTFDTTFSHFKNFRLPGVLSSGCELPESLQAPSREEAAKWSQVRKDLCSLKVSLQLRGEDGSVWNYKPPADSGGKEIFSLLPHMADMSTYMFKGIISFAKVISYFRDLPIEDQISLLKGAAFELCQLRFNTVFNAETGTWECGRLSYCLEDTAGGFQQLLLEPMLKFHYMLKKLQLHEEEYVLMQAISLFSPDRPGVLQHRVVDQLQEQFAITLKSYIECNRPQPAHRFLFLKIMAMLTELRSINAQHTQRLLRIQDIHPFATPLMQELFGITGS
As to the kind of experiment: Activation of human PXR at 15 uM.

Series [10] in a line: Kinetic solubility of compound at pH 2. The following applies: buffer.
Series [11] can be described thus: Oral bioavailability in Sprague-Dawley rat at 5 mg/kg. Type of series: ADME, organism-based. The settings on record: in vivo.
Series [12] is described as follows: Volume of distribution in Sprague-Dawley rat at 5 mg/kg, po or 1 mg/kg, iv. Type of series: ADME, organism-based. The settings on record: in vivo.
In series [13] the target is Voltage-gated inwardly rectifying potassium channel KCNH2 (Homo sapiens, UniProt Q12809). The series is described as follows: Inhibition of human ERG.
Chain of Voltage-gated inwardly rectifying potassium channel KCNH2 (Q12809 whole entry): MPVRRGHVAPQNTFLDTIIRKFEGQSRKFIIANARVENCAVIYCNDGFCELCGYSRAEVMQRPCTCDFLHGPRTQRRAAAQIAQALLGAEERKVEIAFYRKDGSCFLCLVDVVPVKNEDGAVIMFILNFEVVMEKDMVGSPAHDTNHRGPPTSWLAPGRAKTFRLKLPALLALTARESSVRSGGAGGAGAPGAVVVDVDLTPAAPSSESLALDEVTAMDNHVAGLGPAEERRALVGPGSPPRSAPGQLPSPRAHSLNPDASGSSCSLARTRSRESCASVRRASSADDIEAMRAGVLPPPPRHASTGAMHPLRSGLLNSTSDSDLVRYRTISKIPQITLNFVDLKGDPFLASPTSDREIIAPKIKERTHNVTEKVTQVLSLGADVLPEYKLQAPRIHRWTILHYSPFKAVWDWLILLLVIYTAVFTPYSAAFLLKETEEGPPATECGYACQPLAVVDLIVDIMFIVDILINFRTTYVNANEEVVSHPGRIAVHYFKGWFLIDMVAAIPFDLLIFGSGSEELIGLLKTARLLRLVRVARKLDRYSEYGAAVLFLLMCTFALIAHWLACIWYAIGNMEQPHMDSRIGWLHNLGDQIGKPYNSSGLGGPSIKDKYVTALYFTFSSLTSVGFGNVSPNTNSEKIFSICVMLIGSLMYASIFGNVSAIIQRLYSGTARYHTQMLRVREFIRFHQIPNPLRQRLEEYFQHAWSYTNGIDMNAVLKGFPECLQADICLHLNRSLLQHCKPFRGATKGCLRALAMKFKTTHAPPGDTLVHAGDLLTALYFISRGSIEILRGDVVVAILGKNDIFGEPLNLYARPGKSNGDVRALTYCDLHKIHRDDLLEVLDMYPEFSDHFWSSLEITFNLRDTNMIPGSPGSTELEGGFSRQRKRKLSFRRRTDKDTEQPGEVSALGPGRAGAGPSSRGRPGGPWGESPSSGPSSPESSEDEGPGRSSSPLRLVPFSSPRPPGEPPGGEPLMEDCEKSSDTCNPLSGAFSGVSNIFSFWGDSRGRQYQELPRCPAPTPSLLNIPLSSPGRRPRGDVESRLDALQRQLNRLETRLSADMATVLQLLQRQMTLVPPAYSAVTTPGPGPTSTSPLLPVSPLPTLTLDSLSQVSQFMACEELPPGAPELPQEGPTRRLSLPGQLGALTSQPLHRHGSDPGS
Series [14] is described as follows: Half life in Sprague-Dawley rat at 5 mg/kg, po or 1 mg/kg, iv. The settings on record: in vivo. Type of series: ADME, organism-based.
Series [15] concerns the target CYP isoform (not specified) (Homo sapiens, UniProt P04798+P05177+P05181+P08684+P10632+P10635+P11509+P11712+P13584+P20813+P20815+P20853+P24462+P24903+P33260+P33261+P51589+P78329+P98187+Q02928+Q08477+Q16678+Q16696+Q5TCH4+Q6VVX0+Q7Z449+Q8TAV3+Q96SQ9+Q9HB55). The series is described as follows: Inhibition of CYP isoform (unknown origin). The series is classed as ADME, protein assay.

A short description of series [16]: Kinetic solubility of compound at pH 7. The following applies: buffer.
Series [17] can be described thus: Stability of compound in human plasma assessed as half life. The series is classed as ADME, cell-free.
Series [18] is described as follows: Lipophilicity, logD of the compound at pH 7.4. Type of series: physicochemical. The settings on record: buffer.
A short description of series [19]: Glutathione reactivity of compound. The series is classed as physicochemical.
A short description of series [20]: Stability of compound in rat plasma assessed as half life. Type of series: ADME, cell-free.
Series [21] can be described thus: Chemical stability of compound at pH 6 to 9 at 40 degreeC. The series is classed as physicochemical. The settings on record: buffer.

Molecules are shown by their SMILES. ≈ marks a conversion by molar mass, not a printed value. Calls of active or inactive are those of the source. The rule behind the calls is not given here.

Consider `Nc1nc2c(-c3cccc(Cl)c3Cl)cccc2[nH]1`, for which the EC50 with U2OS [1] was found to be 14.4 µM.

For `CNc1cc(-c2cccc(Cl)c2Cl)nc(N)n1`, the outcome (with U2OS [2]; in [4]) was Active. The CC50 at 72 h in series [3] stood at 0.726 µM. In addition, the EC50 in the series on SW480 is 3 µM; with U2OS [1] it was 0.7 to 1.8 µM.

As for `O=C1c2c(O)ccc(O)c2C(=O)c2c(NCCNCCO)ccc(NCCNCCO)c21`, the inhibition entry in series [4] was “Active”.

As to `CNc1cc(N2CCCCC2)nc(N)n1`, the outcome in the series on U2OS [2] was inactive.

Regarding `CNc1cc(N(C)[C@@H](C)c2ccccc2)nc(N)n1`, the EC50 in the series on U2OS [1] was 24.9 µM.

For `COc1ccc2nc3[nH]nc(C)c3c(NCCOCCO)c2c1`, in the series with U2OS [1], the EC50 was above 20 µM.

With `C[C@H](Oc1cc(-c2cnn(C3CCNCC3)c2)cnc1N)c1c(Cl)ccc(F)c1Cl`, in the series on U2OS [1], the EC50 was 6.8 µM.

In the case of `CC(=O)Nc1cc2ncccc2c(-c2cccc(C)c2C)n1`, the Papp B→A in [5] came out at 45 ×10⁻⁶ cm/s. The same compound displayed a pKa in series [6] of 3.5. The compound also had a Papp A→B in [7] of 37 ×10⁻⁶ cm/s.

With `Nc1nc2cccc(-c3cccc(Cl)c3Cl)n2n1`, in the series on U2OS [2], the outcome was inactive. This compound showed a clearance in series [8] of 12.2 mL/min/kg. Also, in series [9], the Activity result is on record as “Not Active”. The kinetic solubility is 93 µM (≈ 26 µg/mL) in series [10] and 74 µM (≈ 20.7 µg/mL) in [16]. The Papp B→A in series [5] stood at 34 ×10⁻⁶ cm/s. Also, the bioavailability in series [11] was 86%. For the same compound, the CC50 at 72 h in [3] was above 50 µM. In series [12], the Vd is 2.7 L/kg. Besides, the IC50 in series [13] and in series [15] was above 25 µM in each case. Besides, the half-life in series [14] is 3.2 h. Besides, the EC50 with U2OS [1] was 20.3 µM. The Papp A→B in [7] came out at 41 ×10⁻⁶ cm/s.

`CC(=O)Nc1cc2c(c(-c3cccc(C)c3C)n1)CCCN2`: in the series on U2OS [2], the outcome was inactive. The kinetic solubility in [10] amounted to 97 µM (≈ 28.7 µg/mL); in series [16], 70 µM (≈ 20.7 µg/mL). Besides, the values for the half-life in series [17] and in [20] were 4.2 h and 7.43 h, respectively. In series [5], the Papp B→A was 32 ×10⁻⁶ cm/s. Moreover, the CC50 at 72 h in [3] turned out to be 19 µM. In series [18], the logD was found to be 2.5. For the same compound, the Activity entry in [19] is recorded as “Not Active”. This compound also registered a pKa in [6] of 7.5. The EC50 in the series on U2OS [1] is 8.05 µM. For the same compound, the Stability result in series [21] was “Stable”. The same compound showed an apparent permeability from apical to basolateral (Papp A→B) in series [7] of 35 ×10⁻⁶ cm/s.

As to `Nc1nc(NC2CC2)cc(-c2cccc(Cl)c2Cl)n1`, the 50% effective concentration (EC50) with SW480 stood at 9.7 µM; in the series on U2OS [1], 5.6 µM.
